Test results reported in PMC8426295, “Cytotoxic and radiosensitising effects of a novel thioredoxin reductase inhibitor in breast cancer” (Investigational New Drugs, 2021).

How the values were obtained:
[1] = test system: triple-negative breast cancer cells; assay: Drug-radiation combination clonogenic survival, stated for TNBC cells together; format: cell-based, human; details: IQ9 for 4 h followed by irradiation, range over TNBC cell lines
Experimental: 5 × 10^5 cells were seeded in T25 cm^2 tissue culture flasks and incubated overnight. The sub-confluent cells were then treated either for 4-h or 48-h with IQ9 (0–5000 nM) or doxorubicin (10–20 nM). Following drug treatment, cells were collected, counted, and plated at low-density, in triplicate, and incubated, at 37 °C, 5% CO2, undisturbed, for 2 weeks for TNBC cells and 3 weeks for luminal cells, for colony formation. Colonies were fixed (50% methanol in 0.9% saline solution) and stained (0.5% crystal violet solution). Colonies consisting of more than 50 cells were confirmed by microscopy and scored as survivors. The plating efficiency (PE) was calculated as numbers of colonies formed/ numbers of cells plated. For single-agent treatment, drug or radiation, the surviving fraction was calculated as: number of colonies formed/ (numbers of cell plated x PE). […]
Sub-confluent cells were irradiated with a dose of 2, 4, 6, or 8 Gy (at a dose rate of 0.87 Gy/min) using an RS225 x-ray cabinet irradiation system (Xstrahl Limited, UK), fitted with a 0.5 mm Cu filter and run at 195 kV, 10 mA. […] The sensitiser enhancement ratio (SER), calculated by dividing the X-ray dose causing 1% cell survival in the absence of drug treatment by the X-ray dose leading to 1% cell survival in the presence of drug treatment, was used to evaluate the degree of radiosensitisation.

MDA-MB-436 cells [2] = assay: Cell proliferation assay (cell count); format: cell-based; details: Homo sapiens, MDA-MB-436, 48 h
Experimental: 1 × 10^5 cells (2 × 10^5 for T47D’s) were seeded, in triplicate, in 6-well plates and incubated overnight before being treated with IQ9 (0–5000 nM) or doxorubicin (400–600 nM) (positive control and comparator). Total cells were counted after 48 h using a haemocytometer. The total cell count in drug treatment wells was normalised as a percentage of the total cells in vehicle control wells.
(§1) IC50 values were calculated from dose-response curves using an SPSS regression model between inhibition ratios and concentration gradients. The radiobiological parameters: alpha (α), beta (β), α/β ratio, and surviving fraction at 2 Gy (SF2) were extracted from the survival curves fitted using the LQ model. All results are presented as average ± standard deviation (SD) of three independent experiments, each performed in triplicate. Data were analysed using the student T-test and ANOVA one-way test. Statistical analysis was performed using SPSS 23.0 software. Values of P < 0.05 were considered statistically significant.

MCF-7 cells = assay: Clonogenic survival assay; format: cell-based; details: Homo sapiens
Experimental: (§2) 5 × 10^5 cells were seeded in T25 cm^2 tissue culture flasks and incubated overnight. The sub-confluent cells were then treated either for 4-h or 48-h with IQ9 (0–5000 nM) or doxorubicin (10–20 nM). Following drug treatment, cells were collected, counted, and plated at low-density, in triplicate, and incubated, at 37 °C, 5% CO2, undisturbed, for 2 weeks for TNBC cells and 3 weeks for luminal cells, for colony formation. Colonies were fixed (50% methanol in 0.9% saline solution) and stained (0.5% crystal violet solution). Colonies consisting of more than 50 cells were confirmed by microscopy and scored as survivors. The plating efficiency (PE) was calculated as numbers of colonies formed/ numbers of cells plated. For single-agent treatment, drug or radiation, the surviving fraction was calculated as: number of colonies formed/ (numbers of cell plated x PE). For drug radiation combination experiments, cytotoxicity of drug treatment was accounted for by calculating surviving fraction as: number of colonies formed from each radiation dose/ (number of cells plated × PE × surviving fraction of drug-treated cell at 0 Gy).
as §1

MDA-MB-436 cells [3] = assay: Clonogenic survival assay; format: cell-based; details: Homo sapiens
Experimental: as §2, §1

MDA-MB-468 cells = assay: Clonogenic survival assay; format: cell-based; details: Homo sapiens
Experimental: as §2, §1

T47D cells = assay: Clonogenic survival assay; format: cell-based; details: Homo sapiens
Experimental: as §2, §1

MDA-MB-231 cells = assay: Clonogenic survival assay; format: cell-based; details: Homo sapiens
Experimental: as §2, §1

COC1=CC(=O)c2c(c(COc3c(F)cc(F)cc3F)cn2C)C1=O [IQ9]
SER values (sensitiser enhancement ratios) [1]: 1.20–1.43
IC50 (MDA-MB-436 cells [2]): 171 ± 81.4 nM
IC50 (MCF-7 cells; MCF7, 4 h): 340.5 ± 2.1 nM
IC50 (MCF-7 cells; MCF7, 48 h): 601 ± 114 nM
IC50 (MDA-MB-436 cells [3]; MDA-MB-436, 4 h): 195 ± 4.5 nM
IC50 (MDA-MB-436 cells [3]; MDA-MB-436, 48 h): 236 ± 71.5 nM
IC50 (MDA-MB-468 cells; MDA-MB-468, 4 h): 502 ± 171 nM
IC50 (MDA-MB-468 cells; MDA-MB-468, 48 h): 916 ± 173 nM
IC50 (T47D cells; 4 h): 2070 ± 53.7 nM
IC50 (T47D cells; 48 h): 1880 ± 298 nM
IC50 (MDA-MB-231 cells; MDA-MB-231, 4 h): 565 ± 29.5 nM
IC50 (MDA-MB-231 cells; MDA-MB-231, 48 h): 324 ± 20.1 nM
